From doi:10.1101/2025.11.04.686469, “Discovery of Host-Directed Small Molecules with Broad Anti-Leishmanial Efficacy” (bioRxiv, 2025) come the findings set out here.

One data set deals with THP-1 macrophages. Put plainly: Effect of compounds on host cell viability (MTT). It is filed as cell-based. The conditions noted are these: read-out: 24h LC50; THP1 macrophages, 24-hour incubation, MTT assay (Supplemental Table 2). In outline:
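Viability was read as MTT reduction: 2 h with 0.5 mg/mL, formazan dissolved in isopropanol, A560 with 670 nm background subtracted. The macrophages were PMA-differentiated THP-1 cells (150 nM, 72 h), treated 24 h at 1–50 μM or, for some compounds, 72 h at 1–300 μM.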
For orientation: Formazan colour is commonly taken as a measure of viable cells.

The test system of data set [1] is intracellular L. donovani amastigotes. In words: Luminescent-based evaluation of intracellular anti-leishmanial activity in THP-1 macrophages. In kind it is cell-based, Leishmania donovani. Conditions: intracellular Leishmania donovani in THP1 macrophages, luminescence assay (Supplemental Table 2); read-out: Lum IC50. On the procedure:
Luminescent strains, L. donovani LV82 expressing firefly luciferase (a kind gift from Dr. Abhay Satoskar, Ohio State University) and L. mexicana (NR-51210, ATCC) expressing renilla luciferase were used to evaluate the effect of the compounds in intracellular and extracellular conditions. Wild-type L. donovani LV82 (ATCC) were used for Giemsa staining based experiments. All parasites were cultured at 25°C and 5% CO2 in M199 media (Corning) supplemented with 10% FBS, 1% penicillin/streptomycin, and hemin (0.01 mg/mL), and used in experiments up to passage 15.
THP-1 cells were seeded in a 96 well plate (25,000 cells/well) overnight then differentiated with 150 nM phorbol 12-myristate 13-acetate (PMA) over 72 hours (Supplemental Figure 1). […] Briefly, promastigotes of a known cell density were resuspended in RPMI media (with 10% FBS, 1% P/S and 0.05 mM β-mercaptoethanol) and incubated with adhered THP-1 cells over 18 hours. After infection, cells were washed three times with fresh media to remove extracellular promastigotes.
Infected macrophages were then treated with compounds solubilized in DMSO ranging from 0.1-10 μM in concentrations. After 72 hours of treatment, the viability of the amastigotes within macrophages was determined using Promega firefly luminescence assay (Cat E1500) or Pierce Renilla luciferase assay (Cat 16166) for L. donovani and L. mexicana strains, respectively. Briefly, media was removed, and cells were lysed with the assay lysis buffer. The luciferase substrate was then incubated with the lysed cells for 10 min at room temperature and luminescence of live Leishmania was measured in a white opaque 96 well plate using a Biotek plate reader.

Consider `FC(F)(F)c1cc(-c2ccncc2)n(-c2ccc(Br)cc2)n1` [Compound 213], for which, in the data set on THP-1 macrophages, the CC50 is > 50 µM. Further, the 50% inhibitory concentration (IC50) in data set [1] was > 10 µM.
`O=C(Nc1ccc(-n2cc(C(F)(F)F)nc2-c2ccc(-c3ccccc3)cc2)cc1)C1CCCN1Cc1ccccc1` (centres unmarked) [Compound 85]: in the data set on THP-1 macrophages, the CC50 is > 50 µM. The concentration for half-maximal inhibition (IC50) in data set [1] was > 10 µM.
On to `NC1CN(c2ccc(-n3nc(C(F)(F)F)cc3-c3ccc(-c4ccc(C(F)(F)F)cc4)cc3)cc2)C1` [Compound 172], for which the CC50 in the data set with THP-1 macrophages is > 50 µM. Moreover, in data set [1], the 50% inhibitory concentration (IC50) is > 10 µM.
Regarding `O=C1CN(c2ccc(-n3cc(C(F)(F)F)nc3-c3ccc(C(F)(F)F)cc3)cc2)CCN1` [Compound 332], in the data set on THP-1 macrophages, the CC50 turned out to be 31.2 µM. Moreover, the 50% inhibitory concentration (IC50) in data set [1] turned out to be 8 µM.
Taken in the same sequence, the figures for `NC1CCN(c2ccc(-n3nc(C4CCCCC4)cc3C(F)(F)F)cc2)C1` (centres unmarked) [Compound 232] were 14.4 µM and 2.6 µM.
Turning to `FC(F)(F)c1cc(C2CCCCC2)n(-c2ccc(NC3CCN(Cc4ccccc4)CC3)cc2)n1` [Compound 321], the CC50 with THP-1 macrophages turned out to be 23.9 µM. Moreover, the IC50 in data set [1] was determined as 5.1 µM.
Taken in the same sequence, the figures for `NS(=O)(=O)c1ccc(-n2nc(C(F)(F)F)cc2-c2ccc(-c3ccc(C(F)(F)F)cc3)cc2)cc1` [Compound 188] were 9 µM and 3.1 µM.
Taken in the same sequence, the figures for `FC(F)(F)c1cn(-c2ccc(NCC3CC3)cc2)c(-c2ccc(-c3ccccc3)cc2)n1` [Compound 116] were > 50 µM and 9.9 µM.
`FC(F)(F)c1ccc(-c2ccc(-c3cc(C(F)(F)F)nn3-c3ccc(N4CCC(NC5CCCCCC5)C4)cc3)cc2)cc1` (centres unmarked) [Compound 69]: in the data set on THP-1 macrophages, the CC50 came to 12.4 µM. For the same compound, in data set [1], the half-maximal inhibitory concentration (IC50) was determined as 5.5 µM.
The like results for `FC(F)(F)c1cn(-c2ccc(OC3CCNC3)cc2)c(-c2ccc(-c3ccccc3)cc2)n1` (centres unmarked) [Compound 328] were, in that order, 11.1 µM and 2.6 µM.
On to `FC(F)(F)c1cc(-c2ccc(-c3ccsc3)cc2)n(-c2ccc(N3CCNCC3)cc2)n1` [Compound 210], for which the CC50 with THP-1 macrophages came to 10.5 µM. For the same compound, the IC50 in data set [1] worked out at 2.5 µM.
With `FC(F)(F)c1cc(-c2ccc(Cl)c(Cl)c2)n(-c2ccc(Br)cc2)n1` [Compound 198], the CC50 in the data set with THP-1 macrophages was > 50 µM. Also, the concentration for half-maximal inhibition (IC50) in data set [1] was > 10 µM.
On to `NCC(=O)Nc1ccc(-c2cc(C(F)(F)F)nn2-c2ccc(-c3ccc(C(F)(F)F)cc3)cc2)cc1` [Compound 155], for which the CC50 in the data set on THP-1 macrophages is 6.1 µM. For the same compound, the 50% inhibitory concentration (IC50) in data set [1] is 4 µM.
As for `CC(C)C#Cc1ccc(-c2cc(C(F)(F)F)nn2-c2ccc(N3CCC(NC(=O)OC(C)(C)C)C3)cc2)cc1` (centres unmarked) [Compound 97], in the data set on THP-1 macrophages, the CC50 was > 50 µM. The IC50 in data set [1] was > 10 µM.
Taken in the same sequence, the figures for `CC(C)(C)OC(=O)NCC(=O)Nc1ccc(-n2cc(C(F)(F)F)nc2-c2ccc(-c3ccc(C(F)(F)F)cc3)cc2)cc1` [Compound 77] were > 50 µM and > 10 µM.
Taken in the same sequence, the figures for `O=C(NCc1cccc(F)c1)c1ccc(-n2cc(C(F)(F)F)nc2-c2ccc(-c3ccc(C(F)(F)F)cc3)cc2)c(F)c1` [Compound 181] were 28.7 µM and > 10 µM.
Turning to `CC(C)(C)c1cc(C(F)(F)F)nn1-c1ccc(Br)cc1` [Compound 201], the CC50 in the data set on THP-1 macrophages is > 50 µM. In data set [1], the IC50 is > 10 µM.
Consider `FC(F)(F)c1ccc(-c2ccc(-c3cc(C(F)(F)F)nn3-c3ccc(NCCCCl)cc3)cc2)cc1` [Compound 67], for which the CC50 in the data set with THP-1 macrophages is > 50 µM. In data set [1], the IC50 was > 10 µM.
Taken in the same sequence, the figures for `FC(F)(F)c1cc(-c2ccc(-c3ccccc3)cc2)n(-c2ccc(NCCc3ccccc3)cc2)n1` [Compound 62] were > 50 µM and > 10 µM.
Taken in the same sequence, the figures for `NCC(=O)N1CC(Nc2ccc(-n3nc(C(F)(F)F)cc3-c3ccc(-c4ccc(C(F)(F)F)cc4)cc3)cc2)C1` [Compound 118] were 6.2 µM and 2.6 µM.
In the case of `NCC(=O)Nc1ccc(-n2cc(C(F)(F)F)nc2-c2ccc(-c3ccc(C(F)(F)F)cc3)cc2)cc1` [Compound 79], in the data set on THP-1 macrophages, the CC50 turned out to be 6.3 µM. Also, the IC50 in data set [1] is 7.1 µM.
Taken in the same sequence, the figures for `CC(C)(C)OC(=O)NC1CCN(c2ccc(-n3nc(C4CCCCC4)cc3C(F)(F)F)cc2)C1` (centres unmarked) [Compound 229] were 5 µM and 3.4 µM.
Taken in the same sequence, the figures for `FC(F)(F)c1ccc(-c2ccc(-c3cc(C(F)(F)F)nn3-c3ccc(NC4CCN(Cc5ccc(Cl)c(C(F)(F)F)c5)C4)cc3)cc2)cc1` (centres unmarked) [Compound 126] were > 50 µM and > 10 µM.
For the compound `FC(F)(F)c1ccc(-c2cc(C(F)(F)F)nn2-c2ccc(NC3CCNC3)cc2)cc1` (centres unmarked) [Compound 252], the CC50 with THP-1 macrophages stood at 14.4 µM. Also, the IC50 in data set [1] came out at 2.3 µM.
For `Fc1cccc(CN2CCN(c3ccc(-n4nc(C(F)(F)F)cc4-c4ccc(-c5ccc(C(F)(F)F)cc5)cc4)cc3)CC2)c1` [Compound 222], in the data set on THP-1 macrophages, the CC50 was > 50 µM. The IC50 in data set [1] was > 10 µM.
Regarding `FC(F)(F)c1ccc(-c2ccc3ncn(-c4ccc(Br)cc4)c3c2)cc1` [Compound 136], the CC50 with THP-1 macrophages was > 50 µM. Besides, the concentration for half-maximal inhibition (IC50) in data set [1] is > 10 µM.
Turning to `C#CCCCC(=O)NC1CCN(c2ccc(-n3nc(C(F)(F)F)cc3-c3ccc(-c4ccc(C(F)(F)F)cc4)cc3)cc2)CC1` [Compound 92], in the data set with THP-1 macrophages, the CC50 is 14.7 µM. Besides, the IC50 in data set [1] is > 10 µM.
Regarding `CN(C)c1ccc(-c2cc(C(F)(F)F)nn2-c2ccc(Br)cc2)cc1` [Compound 214], the CC50 with THP-1 macrophages is > 50 µM. Moreover, the IC50 in data set [1] was > 10 µM.
Taken in the same sequence, the figures for `NCC(=O)Nc1ccc(-n2nc(C(F)(F)F)c3c2CCCC3)cc1` [Compound 331] were 47 µM and 9.9 µM.
In the case of `Nc1ccc(-n2nc(C(F)(F)F)cc2-c2ccc(-c3ccc(S(F)(F)(F)(F)F)cc3)cc2)cc1` [Compound 104], the CC50 with THP-1 macrophages was > 50 µM. Besides, in data set [1], the IC50 is > 10 µM.
The like results for `FC(F)(F)c1cc(-c2ccc(C3CC3)cc2)n(-c2ccc(N3CCNCC3)cc2)n1` [Compound 211] were, in that order, 13.2 µM and 2.1 µM.
Taken in the same sequence, the figures for `NCCCN1CCC(Oc2ccc(-n3nc(C(F)(F)F)cc3C3CCCCC3)cc2)CC1` [Compound 425] were 5.5 µM and 2.2 µM.
Taken in the same sequence, the figures for `O=C(C1CCCCC1)N1CC(Nc2ccc(-n3nc(C(F)(F)F)cc3-c3ccc(-c4ccc(C(F)(F)F)cc4)cc3)cc2)C1` [Compound 71] were 8.4 µM and > 10 µM.
`COC(=O)c1ccc(-n2cc(C(F)(F)F)nc2-c2ccc(-c3ccc(C(F)(F)F)cc3)cc2)c(F)c1` [Compound 175]: the CC50 in the data set with THP-1 macrophages is > 50 µM. The 50% inhibitory concentration (IC50) in data set [1] was > 10 µM.
`O=[N+]([O-])c1ccc(-n2cc(C(F)(F)F)nc2-c2ccc(Br)cc2)cc1` [Compound 192]: the CC50 in the data set on THP-1 macrophages was > 50 µM. The 50% inhibitory concentration (IC50) in data set [1] was > 10 µM.
Taken in the same sequence, the figures for `FC(F)(F)c1ccc(-c2ccc(-c3cc(C(F)(F)F)nn3-c3ccc(NC4CCNCC4)cc3)cc2)cc1` [Compound 65] were 4 µM and 2.3 µM.
Taken in the same sequence, the figures for `N#Cc1ccc(-n2cc(C(F)(F)F)nc2-c2ccc(-c3ccc(C(F)(F)F)cc3)cc2)cc1` [Compound 177] were > 50 µM and > 10 µM.
As for `CN(C)c1ccc(-c2cc(C(F)(F)F)nn2-c2ccc(N3CCC(N)C3)cc2)cc1` (centres unmarked) [Compound 231], in the data set with THP-1 macrophages, the CC50 was found to be 10.8 µM. Also, the concentration for half-maximal inhibition (IC50) in data set [1] came to 1.8 µM.
The like results for `FC(F)(F)c1ccc(-c2ccc(-c3nc(C(F)(F)F)c[nH]3)cc2)cc1` [Compound 75] were, in that order, 48.8 µM and > 10 µM.
The like results for `CC(=O)NCCOCCN1CCC(Oc2ccc(-n3nc(C(F)(F)F)cc3C3CCCCC3)cc2)CC1` [Compound 427] were, in that order, 29.5 µM and 6.1 µM.
The like results for `CCCNC1CN(c2ccc(-n3nc(C(F)(F)F)cc3-c3ccc(-c4ccc(C(F)(F)F)cc4)cc3)cc2)C1` [Compound 54] were, in that order, 9.9 µM and 2.4 µM.
On to `FC(F)(F)c1cc(-c2cccnc2)n(-c2ccc(NC3CCNC3)cc2)n1` (centres unmarked) [Compound 250], for which the CC50 in the data set with THP-1 macrophages is > 50 µM. The 50% inhibitory concentration (IC50) in data set [1] is > 10 µM.
Taken in the same sequence, the figures for `O=[N+]([O-])c1ccc(-n2cc(C(F)(F)F)nc2-c2ccc(-c3ccc(C(F)(F)F)cc3)cc2)cc1` [Compound 154] were 25.5 µM and 2.9 µM.
The like results for `FC(F)(F)c1cc(C2CCCCC2)n(-c2ccc(N3CCC(NCc4ccccc4)C3)cc2)n1` (centres unmarked) [Compound 364] were, in that order, 31.1 µM and 6.8 µM.
On to `FC(F)(F)c1cc(-c2ccc(-c3ccc(S(F)(F)(F)(F)F)cc3)cc2)n(-c2ccc(Br)cc2)n1` [Compound 105], for which the CC50 in the data set with THP-1 macrophages was > 50 µM. Moreover, the 50% inhibitory concentration (IC50) in data set [1] is > 10 µM.
The like results for `FC(F)(F)c1ccc(-c2ccc(-c3nc(C(F)(F)F)cn3-c3ccc(NC4CCNC4)cc3)cc2)cc1` (centres unmarked) [Compound 246] were, in that order, 5.5 µM and 3.8 µM.

What is called IC50 is the concentration that gives 50% inhibition.
